According to patent US9636418B2 (priority 2013, dated 2017):
“And” between values parts separate entries of the source, which are not always exact repeats. Equal entries are not always repeated.

What was measured:
Experiment in all cases: cell-based
hNav1.5 = hNav1.5 (Homo sapiens, UniProt Q14524); conditions: IonWorks Quattro; read-out: IC50 Nav1.5
hNav1.4 = hNav1.4 (Homo sapiens, UniProt P35499); conditions: for IC50: IonWorks Quattro, read-out: IC50 Nav1.4; for Nav1.4/Nav1.7: ratio of IonWorks Quattro IC50 values
hNav1.7 = hNav1.7 (Homo sapiens, UniProt Q15858); conditions: IonWorks Quattro; read-out: IC50 Nav1.7
hNav1.3 = hNav1.3 (Homo sapiens, UniProt Q9NY46); conditions: IonWorks Quattro; read-out: IC50 Nav1.3

hNav1.4, sequence (P35499 whole entry): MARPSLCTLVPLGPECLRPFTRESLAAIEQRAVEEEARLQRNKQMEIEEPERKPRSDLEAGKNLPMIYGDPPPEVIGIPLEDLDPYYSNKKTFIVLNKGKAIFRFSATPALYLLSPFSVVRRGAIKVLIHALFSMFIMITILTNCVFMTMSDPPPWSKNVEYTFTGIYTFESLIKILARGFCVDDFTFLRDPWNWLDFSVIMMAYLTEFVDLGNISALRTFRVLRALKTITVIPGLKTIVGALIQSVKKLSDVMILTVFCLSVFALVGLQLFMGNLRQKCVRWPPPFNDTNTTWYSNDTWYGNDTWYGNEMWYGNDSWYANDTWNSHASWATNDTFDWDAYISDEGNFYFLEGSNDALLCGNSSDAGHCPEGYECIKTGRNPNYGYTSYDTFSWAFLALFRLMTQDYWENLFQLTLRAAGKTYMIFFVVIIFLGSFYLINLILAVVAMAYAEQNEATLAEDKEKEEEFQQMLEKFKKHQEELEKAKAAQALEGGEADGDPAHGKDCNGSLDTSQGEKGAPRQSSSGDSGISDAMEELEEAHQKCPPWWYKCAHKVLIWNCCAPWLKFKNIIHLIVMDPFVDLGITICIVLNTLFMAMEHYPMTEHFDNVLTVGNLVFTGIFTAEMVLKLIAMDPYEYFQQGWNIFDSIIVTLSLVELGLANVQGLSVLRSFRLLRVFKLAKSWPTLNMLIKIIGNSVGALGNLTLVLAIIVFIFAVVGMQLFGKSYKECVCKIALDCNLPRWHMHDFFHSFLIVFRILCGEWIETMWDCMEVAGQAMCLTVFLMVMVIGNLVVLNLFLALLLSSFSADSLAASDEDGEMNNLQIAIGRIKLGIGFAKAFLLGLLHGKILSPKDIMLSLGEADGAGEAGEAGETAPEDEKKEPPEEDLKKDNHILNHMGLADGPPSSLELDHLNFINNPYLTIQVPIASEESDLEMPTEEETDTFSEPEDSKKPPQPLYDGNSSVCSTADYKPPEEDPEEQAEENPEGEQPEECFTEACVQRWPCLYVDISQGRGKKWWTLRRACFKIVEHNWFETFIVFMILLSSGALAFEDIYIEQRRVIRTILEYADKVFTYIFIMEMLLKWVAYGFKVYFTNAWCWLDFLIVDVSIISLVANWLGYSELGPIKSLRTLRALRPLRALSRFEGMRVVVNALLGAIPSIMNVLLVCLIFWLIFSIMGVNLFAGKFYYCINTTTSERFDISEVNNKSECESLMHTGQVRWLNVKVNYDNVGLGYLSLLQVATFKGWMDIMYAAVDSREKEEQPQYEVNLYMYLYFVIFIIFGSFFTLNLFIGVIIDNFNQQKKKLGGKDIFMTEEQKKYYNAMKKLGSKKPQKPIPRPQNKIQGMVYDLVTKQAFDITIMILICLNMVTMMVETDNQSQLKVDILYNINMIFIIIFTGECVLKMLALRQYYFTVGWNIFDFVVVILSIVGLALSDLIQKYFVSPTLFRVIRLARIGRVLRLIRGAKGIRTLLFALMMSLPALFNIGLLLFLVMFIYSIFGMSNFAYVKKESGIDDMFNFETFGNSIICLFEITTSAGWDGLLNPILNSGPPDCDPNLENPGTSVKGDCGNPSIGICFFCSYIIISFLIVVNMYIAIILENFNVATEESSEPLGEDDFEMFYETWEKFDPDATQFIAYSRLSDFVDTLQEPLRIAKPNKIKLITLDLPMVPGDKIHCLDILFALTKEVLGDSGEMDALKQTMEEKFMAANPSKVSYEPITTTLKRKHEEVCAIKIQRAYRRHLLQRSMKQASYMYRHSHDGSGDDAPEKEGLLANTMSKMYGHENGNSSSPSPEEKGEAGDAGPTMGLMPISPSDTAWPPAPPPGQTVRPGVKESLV
hNav1.5, sequence (Q14524 whole entry): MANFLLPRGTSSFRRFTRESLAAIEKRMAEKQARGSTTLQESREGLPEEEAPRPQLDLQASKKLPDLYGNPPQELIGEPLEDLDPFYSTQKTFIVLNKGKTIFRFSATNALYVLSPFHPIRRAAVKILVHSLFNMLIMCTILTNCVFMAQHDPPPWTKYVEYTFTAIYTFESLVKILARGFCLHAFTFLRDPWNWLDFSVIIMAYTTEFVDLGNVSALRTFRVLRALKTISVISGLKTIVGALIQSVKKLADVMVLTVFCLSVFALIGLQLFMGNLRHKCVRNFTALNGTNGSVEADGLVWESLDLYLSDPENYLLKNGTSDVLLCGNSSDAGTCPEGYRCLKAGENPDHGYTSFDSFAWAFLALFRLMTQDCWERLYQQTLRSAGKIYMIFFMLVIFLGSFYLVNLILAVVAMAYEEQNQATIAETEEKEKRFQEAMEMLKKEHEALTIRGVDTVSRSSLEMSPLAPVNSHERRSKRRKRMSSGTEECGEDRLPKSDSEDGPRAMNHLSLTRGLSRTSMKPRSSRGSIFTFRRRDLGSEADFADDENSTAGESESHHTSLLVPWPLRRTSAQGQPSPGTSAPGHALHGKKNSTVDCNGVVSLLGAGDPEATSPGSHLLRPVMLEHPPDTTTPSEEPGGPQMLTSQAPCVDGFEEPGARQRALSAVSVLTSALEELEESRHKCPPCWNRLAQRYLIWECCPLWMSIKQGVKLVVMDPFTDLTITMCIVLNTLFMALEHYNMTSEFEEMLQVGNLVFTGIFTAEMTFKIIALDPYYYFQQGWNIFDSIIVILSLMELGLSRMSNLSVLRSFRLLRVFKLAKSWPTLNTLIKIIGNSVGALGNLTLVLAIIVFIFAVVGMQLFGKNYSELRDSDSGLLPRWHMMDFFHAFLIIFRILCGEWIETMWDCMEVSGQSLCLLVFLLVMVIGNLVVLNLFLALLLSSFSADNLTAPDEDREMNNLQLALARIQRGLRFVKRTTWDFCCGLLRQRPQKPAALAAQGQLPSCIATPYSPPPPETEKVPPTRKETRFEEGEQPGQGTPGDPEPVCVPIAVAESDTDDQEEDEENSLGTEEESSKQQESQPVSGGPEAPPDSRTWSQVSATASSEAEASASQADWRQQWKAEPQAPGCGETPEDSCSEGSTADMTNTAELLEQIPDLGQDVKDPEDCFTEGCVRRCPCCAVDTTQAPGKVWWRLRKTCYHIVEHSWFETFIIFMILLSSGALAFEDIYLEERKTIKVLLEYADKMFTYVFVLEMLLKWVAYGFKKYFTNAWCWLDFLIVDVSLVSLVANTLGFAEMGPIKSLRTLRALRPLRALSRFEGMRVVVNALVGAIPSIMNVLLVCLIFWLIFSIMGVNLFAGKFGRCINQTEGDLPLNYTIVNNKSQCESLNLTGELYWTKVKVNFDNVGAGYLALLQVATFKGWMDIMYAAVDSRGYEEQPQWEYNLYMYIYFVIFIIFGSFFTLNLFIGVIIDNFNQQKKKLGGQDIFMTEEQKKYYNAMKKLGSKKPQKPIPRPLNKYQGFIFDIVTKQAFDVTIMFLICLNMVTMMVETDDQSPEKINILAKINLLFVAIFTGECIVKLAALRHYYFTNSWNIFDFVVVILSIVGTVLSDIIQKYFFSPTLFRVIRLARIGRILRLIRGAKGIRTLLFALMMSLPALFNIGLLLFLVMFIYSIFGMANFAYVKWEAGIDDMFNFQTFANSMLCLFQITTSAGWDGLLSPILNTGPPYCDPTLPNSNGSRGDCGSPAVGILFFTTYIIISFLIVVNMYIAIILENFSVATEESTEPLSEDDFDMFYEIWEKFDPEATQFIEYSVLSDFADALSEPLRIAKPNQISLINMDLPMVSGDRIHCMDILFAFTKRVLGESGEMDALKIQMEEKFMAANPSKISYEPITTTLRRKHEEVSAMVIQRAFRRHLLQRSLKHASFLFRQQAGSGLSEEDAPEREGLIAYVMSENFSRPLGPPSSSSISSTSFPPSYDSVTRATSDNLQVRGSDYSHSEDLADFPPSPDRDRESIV

Row | Structure (SMILES) | IC50 (hNav1.5) | IC50 (hNav1.4) | Nav1.4/Nav1.7 (hNav1.4) | IC50 (hNav1.7) | IC50 (hNav1.3)
1 | CC[C@H](C)[C@H](NC(=O)[C@@H](NC(=O)[C@H](CCCCN)NC(=O)[C@H](CCCNC(=N)N)NC(=O)[C@@H]1CSSC[C@@H]2NC(=O)[C@H](C)NC(=O)[C@H](CCCNC(=N)N)NC(=O)[C@H](CCCCN)NC(=O)[C@H](CO)NC(=O)[C@H](CC(=O)O)NC(=O)[C@@H]3CSSC[C@H](NC(=O)[C@H]([C@@H](C)CC)NC(=O)[C@H](CC(C)C)NC(=O)CNC(=O)[C@H](CCC(=O)O)NC(=O)[C@H](CSSC[C@H](NC(=O)[C@@H](N)Cc4ccc(O)cc4)C(=O)N[C@@H](CCC(N)=O)C(=O)N[C@@H](CCCCN)C(=O)N[C@@H](Cc4c[nH]c5ccccc45)C(=O)N[C@@H](CCSC)C(=O)N[C@@H](Cc4c[nH]c5ccccc45)C(=O)N[C@@H]([C@@H](C)O)C(=O)N3)NC2=O)C(=O)N[C@@H](CCCCN)C(=O)N[C@@H](CC(C)C)C(=O)N[C@@H](Cc2c[nH]c3ccccc23)C(=O)N1)[C@@H](C)CC)C(N)=O [compound 118] | 8.6 µM | 1.3 µM | 15 | 0.09 µM | 2.2 µM
2 | CC[C@H](C)[C@H](NC(=O)[C@H](CC(C)C)NC(=O)[C@H](CCCCN)NC(=O)[C@H](CCCNC(=N)N)NC(=O)[C@@H]1CSSC[C@@H]2NC(=O)[C@H](C)NC(=O)[C@H](CCCNC(=N)N)NC(=O)[C@H](CCCCN)NC(=O)[C@H](CO)NC(=O)[C@H](CC(=O)O)NC(=O)[C@@H]3CSSC[C@H](NC(=O)[C@H](CCC(=O)O)NC(=O)[C@H](CC(C)C)NC(=O)CNC(=O)[C@H](CCC(=O)O)NC(=O)[C@H](CSSC[C@H](NC(=O)[C@@H](N)Cc4ccc(O)cc4)C(=O)N[C@@H](CCC(N)=O)C(=O)N[C@@H](CCCCN)C(=O)N[C@@H](Cc4c[nH]c5ccccc45)C(=O)N[C@@H](CCSC)C(=O)N[C@@H](Cc4c[nH]c5ccccc45)C(=O)N[C@@H]([C@@H](C)O)C(=O)N3)NC2=O)C(=O)N[C@@H](CCCCN)C(=O)N[C@@H](CC(C)C)C(=O)N[C@@H](Cc2c[nH]c3ccccc23)C(=O)N1)C(N)=O [compound 132] | 6.7 µM | > 5 µM | 12 | 0.41 µM | > 5 µM
3 | CC[C@H](C)[C@H](NC(=O)[C@H](Cc1ccc(O)cc1)NC(=O)[C@H](CCCCN)NC(=O)[C@H](CCCNC(=N)N)NC(=O)[C@@H]1CSSC[C@@H]2NC(=O)[C@H](C)NC(=O)[C@H](CCCNC(=N)N)NC(=O)[C@H](CCCCN)NC(=O)[C@H](CO)NC(=O)[C@H](CC(=O)O)NC(=O)[C@@H]3CSSC[C@H](NC(=O)[C@H](CCC(=O)O)NC(=O)[C@H](CC(C)C)NC(=O)CNC(=O)[C@H](CCC(=O)O)NC(=O)[C@H](CSSC[C@H](NC(=O)[C@@H](N)Cc4ccc(O)cc4)C(=O)N[C@@H](CCC(N)=O)C(=O)N[C@@H](CCCCN)C(=O)N[C@@H](Cc4ccc(O)cc4)C(=O)N[C@@H](CCSC)C(=O)N[C@@H](Cc4c[nH]c5ccccc45)C(=O)N[C@@H]([C@@H](C)O)C(=O)N3)NC2=O)C(=O)N[C@@H](CCCCN)C(=O)N[C@@H](CC(C)C)C(=O)N[C@@H](Cc2c[nH]c3ccccc23)C(=O)N1)C(N)=O [compound 194] | > 5 µM | > 5 µM |  | 0.91 µM and 2.5 µM | > 5 µM
4 | CC[C@H](C)[C@H](NC(=O)[C@H](Cc1ccc(C(=O)O)cc1)NC(=O)[C@H](CCCCN)NC(=O)[C@H](CCCNC(=N)N)NC(=O)[C@@H]1CSSC[C@@H]2NC(=O)[C@H](C)NC(=O)[C@H](CCCNC(=N)N)NC(=O)[C@H](CCCCN)NC(=O)[C@H](CO)NC(=O)[C@H](CC(=O)O)NC(=O)[C@@H]3CSSC[C@H](NC(=O)[C@H](CCC(=O)O)NC(=O)[C@H](CC(C)C)NC(=O)CNC(=O)[C@H](CCC(=O)O)NC(=O)[C@H](CSSC[C@H](NC(=O)[C@@H](N)Cc4ccc(O)cc4)C(=O)N[C@@H](CCC(N)=O)C(=O)N[C@@H](CCCCN)C(=O)N[C@@H](Cc4c[nH]c5ccccc45)C(=O)N[C@@H](CCSC)C(=O)N[C@@H](Cc4c[nH]c5ccccc45)C(=O)N[C@@H]([C@@H](C)O)C(=O)N3)NC2=O)C(=O)N[C@@H](CCCCN)C(=O)N[C@@H](CC(C)C)C(=O)N[C@@H](Cc2c[nH]c3ccccc23)C(=O)N1)C(N)=O [compound 127] | 16.7 µM | > 5 µM | 2 | 2.35 µM | > 5 µM
5 | CCC[C@@H]1NC(=O)[C@H](CCCCN)NC(=O)[C@H](CCC(N)=O)NC(=O)[C@@H](NC(=O)[C@@H](N)Cc2ccc(O)cc2)CSSC[C@@H]2NC(=O)[C@@H]3CSSC[C@@H](C(=O)N[C@@H](CCCNC(=N)N)C(=O)N[C@@H](CCCCN)C(=O)N[C@@H](Cc4ccc(O)cc4)C(=O)N[C@H](C(N)=O)[C@@H](C)CC)NC(=O)[C@H](Cc4c[nH]c5ccccc45)NC(=O)[C@H](CC(C)C)NC(=O)[C@H](CCCCN)NC(=O)[C@H](CSSC[C@H](NC(=O)[C@H]([C@@H](C)O)NC(=O)[C@H](Cc4c[nH]c5ccccc45)NC(=O)[C@H](CCSC)NC1=O)C(=O)N[C@@H](CC(=O)O)C(=O)N[C@@H](CO)C(=O)N[C@@H](CCCCN)C(=O)N[C@@H](CCCNC(=N)N)C(=O)N[C@@H](C)C(=O)N3)NC(=O)[C@H](CCC(=O)O)NC(=O)[C@H](CC(C)C)NC(=O)CNC(=O)[C@H](CCC(=O)O)NC2=O [compound 198] | > 5 µM | > 5 µM |  | 3.3 µM | > 5 µM
6 | CC[C@H](C)[C@H](NC(=O)[C@H](CC(=O)O)NC(=O)[C@H](CCCCN)NC(=O)[C@H](CCCNC(=N)N)NC(=O)[C@@H]1CSSC[C@@H]2NC(=O)[C@H](C)NC(=O)[C@H](CCCNC(=N)N)NC(=O)[C@H](CCCCN)NC(=O)[C@H](CO)NC(=O)[C@H](CC(=O)O)NC(=O)[C@@H]3CSSC[C@H](NC(=O)[C@H](CCC(=O)O)NC(=O)[C@H](CC(C)C)NC(=O)CNC(=O)[C@H](CCC(=O)O)NC(=O)[C@H](CSSC[C@H](NC(=O)[C@@H](N)Cc4ccc(O)cc4)C(=O)N[C@@H](CCC(N)=O)C(=O)N[C@@H](CCCCN)C(=O)N[C@@H](Cc4c[nH]c5ccccc45)C(=O)N[C@@H](CCSC)C(=O)N[C@@H](Cc4c[nH]c5ccccc45)C(=O)N[C@@H]([C@@H](C)O)C(=O)N3)NC2=O)C(=O)N[C@@H](CCCCN)C(=O)N[C@@H](CC(C)C)C(=O)N[C@@H](Cc2c[nH]c3ccccc23)C(=O)N1)C(N)=O [compound 128] | 13.9 µM | > 5 µM | 4 | 1.34 µM | > 5 µM
7 | CC[C@H](C)[C@H](NC(=O)[C@@H](NC(=O)[C@H](CCCCN)NC(=O)[C@H](CCCNC(=N)N)NC(=O)[C@@H]1CSSC[C@@H]2NC(=O)[C@H](C)NC(=O)[C@H](CCCNC(=N)N)NC(=O)[C@H](CCCCN)NC(=O)[C@H](CO)NC(=O)[C@H](CC(=O)O)NC(=O)[C@@H]3CSSC[C@H](NC(=O)[C@H](CC(C)C)NC(=O)[C@H](CC(C)C)NC(=O)CNC(=O)[C@H](CCC(=O)O)NC(=O)[C@H](CSSC[C@H](NC(=O)[C@@H](N)Cc4ccc(O)cc4)C(=O)N[C@@H](CCC(N)=O)C(=O)N[C@@H](CCCCN)C(=O)N[C@@H](Cc4c[nH]c5ccccc45)C(=O)N[C@@H](CCSC)C(=O)N[C@@H](Cc4c[nH]c5ccccc45)C(=O)N[C@@H]([C@@H](C)O)C(=O)N3)NC2=O)C(=O)N[C@@H](CCCCN)C(=O)N[C@@H](CC(C)C)C(=O)N[C@@H](Cc2c[nH]c3ccccc23)C(=O)N1)[C@@H](C)CC)C(N)=O [compound 119] | 8.3 µM | 1 µM | 14 | 0.07 µM | 2.51 µM
8 | CSCC[C@@H]1NC(=O)[C@H](Cc2c[nH]c3ccccc23)NC(=O)[C@H](CCCCN)NC(=O)[C@H](CCC(N)=O)NC(=O)[C@@H](NC(=O)[C@@H](N)Cc2ccc(O)cc2)CSSC[C@@H]2NC(=O)[C@@H]3CSSC[C@@H](C(=O)N[C@@H](CCCNC(=N)N)C(=O)N[C@@H](CCCCN)C(=O)N[C@@H](Cc4ccc(O)cc4)C(=O)N[C@@H](CO)C(N)=O)NC(=O)[C@H](Cc4c[nH]c5ccccc45)NC(=O)[C@H](CC(C)C)NC(=O)[C@H](CCCCN)NC(=O)[C@H](CSSC[C@H](NC(=O)[C@H]([C@@H](C)O)NC(=O)[C@H](Cc4c[nH]c5ccccc45)NC1=O)C(=O)N[C@@H](CC(=O)O)C(=O)N[C@@H](CO)C(=O)N[C@@H](CCCCN)C(=O)N[C@@H](CCCNC(=N)N)C(=O)N[C@@H](C)C(=O)N3)NC(=O)[C@H](CCC(=O)O)NC(=O)[C@H](CC(C)C)NC(=O)CNC(=O)[C@H](CCC(=O)O)NC2=O [compound 244] | > 5 µM | > 5 µM |  | 0.34 µM | > 5 µM
9 | CSCC[C@@H]1NC(=O)[C@H](Cc2c[nH]c3ccccc23)NC(=O)[C@H](CCCCN)NC(=O)[C@H](CCC(N)=O)NC(=O)[C@@H](NC(=O)[C@@H](N)Cc2ccc(O)cc2)CSSC[C@@H]2NC(=O)[C@@H]3CSSC[C@@H](C(=O)N[C@@H](CCCNC(=N)N)C(=O)N[C@@H](CCCCN)C(=O)N[C@@H](Cc4ccc(O)cc4)C(=O)N[C@@H](CC(N)=O)C(N)=O)NC(=O)[C@H](Cc4c[nH]c5ccccc45)NC(=O)[C@H](CC(C)C)NC(=O)[C@H](CCCCN)NC(=O)[C@H](CSSC[C@H](NC(=O)[C@H]([C@@H](C)O)NC(=O)[C@H](Cc4c[nH]c5ccccc45)NC1=O)C(=O)N[C@@H](CC(=O)O)C(=O)N[C@@H](CO)C(=O)N[C@@H](CCCCN)C(=O)N[C@@H](CCCNC(=N)N)C(=O)N[C@@H](C)C(=O)N3)NC(=O)[C@H](CCC(=O)O)NC(=O)[C@H](CC(C)C)NC(=O)CNC(=O)[C@H](CCC(=O)O)NC2=O [compound 243] | > 5 µM | > 5 µM |  | 0.52 µM | > 5 µM
